Results taken from patent publication US11046691B1 (IDEAYA BIOSCIENCES, INC., priority 2018, dated 2021).

Target: hMAT2A (Homo sapiens (Human), UniProt P31153)
Test: Phosphate Sensor Fluorescence Assay (MAT2A enzyme inhibition)
Type: biochemical
Details: L-methionine 500 uM, ATP 500 uM
Procedure: The ability of the compound of present disclosure to inhibit MAT2A enzyme was determined using the Malachite Green or Phosphate Sensor Fluorescence Assay described below.
B. Phosphate Sensor Fluorescence Assay
MAT2A enzyme is incubated with a test compound in DMSO or DMSO and its substrates (L-methionine and ATP) in a microtiter plate. The enzymatic reaction is stopped by the addition of Working Phosphate Sensor Mixture. The plate is analyzed for fluorescence at 450 nm.
Assay Buffer: 50 mM Tris, pH 7.5/50 mM KCl/10 mM MgCl2/0.01% Brij-35/1 mM DTT/0.1% BGG/40 nM PNP/6 uM 7-MEG
L-methionine: 500 uM before the addition of Working Phosphate Sensor Mixture
ATP: 500 uM before the addition of Working Phosphate Sensor Mixture
Test compounds or DMSO were added to the appropriate well suing D300e digital dispenser. 5 μl/well of Assay Buffer was added to the wells corresponding to the negative control and 5 μl/well of MAT2A was added to all the wells except for those corresponding to the negative control. After incubating the plate at room temperature for 15 minutes, 5 μl/well of the 1 mM L-methionine/1 mM ATP mixture was added to all wells. The plate was centrifuged at 1000 rpm for 1 minute and then incubated at room temperature for 1 hour. 5 μl of the Working Phosphate Sensor Mixture was added to all wells and the plate was centrifuged at 1000 rpm for 1 minute. The plate was read for fluorescence at 450 nm after exciting at 430 nm.
Percent inhibition was calculated in Chemical and Biological Information System (CBIS), (ChemInnovation Software Inc.). Curves were fitted by CBIS as % inhibition vs. log [compound concentration] using a 4-parameter inhibition model. Fit=(A+((B−A)/(1+((C/x)^D)))) Res=(y−fit)

Sequence of hMAT2A (P31153 whole entry): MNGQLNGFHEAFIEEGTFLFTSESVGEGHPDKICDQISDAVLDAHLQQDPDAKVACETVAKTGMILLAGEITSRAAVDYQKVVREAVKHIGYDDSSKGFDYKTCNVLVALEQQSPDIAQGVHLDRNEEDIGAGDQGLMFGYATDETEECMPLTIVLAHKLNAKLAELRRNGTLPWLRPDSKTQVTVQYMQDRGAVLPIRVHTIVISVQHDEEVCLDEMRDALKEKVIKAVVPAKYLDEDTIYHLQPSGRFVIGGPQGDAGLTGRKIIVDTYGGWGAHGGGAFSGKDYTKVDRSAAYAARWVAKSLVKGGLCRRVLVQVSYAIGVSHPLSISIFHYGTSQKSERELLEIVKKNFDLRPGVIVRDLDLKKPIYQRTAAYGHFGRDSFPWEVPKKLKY

| SMILES | IC50 (class symbols) [nM] | IC50 (numeric bound) [nM] |
| --- | --- | --- |
| O=c1nc(N2CC[C@@H](O)C2)c2ccc(C(F)(F)F)nc2n1-c1ccccc1 [Example 170, (R)-4-(3-hydroxypyrrolidin-1-yl)-1-phenyl-7-(trifluoromethyl)pyrido[2,3-d]-pyrimidin-2(1H)-one] | < 200 | – |
| O=c1nc(N2CC(O)C2)c2ccc(C(F)(F)F)nc2n1-c1ccccc1 [Example 171, 4-(3-hydroxyazetidin-1-yl)-1-phenyl-7-(trifluoromethyl)pyrido[2,3-d]pyrimidin-2(1H)-one] | < 200 | – |
| O=c1nc(N2CC[C@H]2CO)c2ccc(Cl)cc2n1-c1ccccc1 [Example 172, (S)-7-chloro-4-(2-(hydroxymethyl)-azetidin-1-yl)-1-phenylquinazolin-2(1H)-one] | < 200 | – |
| CNc1nc(=O)n(-c2cccc(C#N)c2C)c2cc(Cl)ccc12 [Example 173, 3-[7-chloro-4-(methylamino)-2-oxo-hydroquinazolinyl]-2-methylbenzene-carbonitrile] | < 200 | – |
| CNC(=O)c1cccc(-n2c(=O)nc(NC)c3ccc(Cl)cc32)c1 [Example 175] | < 200 | – |
| O=c1nc(N2CCCC2)c2ccc(C(F)(F)F)nc2n1-c1ccccc1Cl [Example 176, 1-(2-chlorophenyl)-4-(pyrrolictin-1-yl)-7-(trifluoromethyl)pyrido[2,3-d]pyrimidin-2(1H)-one] | < 200 | – |
| CNc1nc(=O)n(-c2ccccc2Cl)c2nc(C(F)(F)F)ccc12 [Example 178, 1-(2-chlorophenyl)-4-(methylamino)-7-(trifluoromethyl)pyrido[2,3-d]pyrimidin-2(1H)-one] | < 200 | – |
| CNc1nc(=O)n(-c2cccc(C#N)c2)c2nc(C(F)(F)F)ccc12 [Example 179, 3-[4-(methylamino)-2-oxo-7-(trifluoro-methyl)pyrido[2,3-d]pyrimidin-1(2H)-yl)benzonitrile] | < 200 | – |
| CNc1nc(=O)n(-c2ccccc2C)c2nc(C(F)(F)F)ccc12 [Example 180, 4-(methylamino)-1-(2-methylphenyl)-7-(trifluoromethyl)pyrido[2,3-d]pyrimidin-2(1H)-one] | < 200 | – |
| O=c1nc(N2CC[C@H](O)C2)c2ccc(C(F)(F)F)nc2n1-c1ccccc1Cl [Example 181, (S)-1-(2-chlorophenyl)-4-(3-hydroxy-pyrrolidin-1-yl)-7-(trifluoromethyl)-pyrido[2,3-d]pyrimidin-2(1H)-one] | < 200 | – |
| N#Cc1cccc(-n2c(=O)nc(N3CC[C@H](O)C3)c3ccc(C(F)(F)F)nc32)c1 [Example 182, (S)-3-(4-(3-hydroxypyrrolidin-1-yl)-2-oxo-7-(trifluoromethyl)pyrido[2,3-d]pyrimidin-1(2H)-yl)benzonitrile] | < 200 | – |
| Cc1ccccc1-n1c(=O)nc(N2CC[C@@H](O)C2)c2ccc(C(F)(F)F)nc21 [Example 183, (R)-4-(3-hydroxypyrrolidin-1-yl)-1-(o-tolyl)-7-(trifluoromethyl)pyrido[2,3-d]-pyrimidin-2(1H)-one] | < 200 | – |
| CNc1nc(=O)n(-c2ccccc2)c2nc(C(F)(F)F)ccc12 [Example 184, 4-(methylamino)-1-phenyl-7-(trifluoromethyl)pyrido[2,3-d]-pyrimidin-2(1H)-one] | < 200 | – |
| CNc1nc(=O)n(-c2ccccc2)c2cc(Cl)cc(OCCO)c12 [Example 185, 7-chloro-5-(2-hydroxyethoxy)-4-(methylamino)-1-phenylhydro-quinazolin-2-one] | < 200 | – |
| O=c1nc(N2CCC2CO)c2ccc(Cl)cc2n1-c1ccccc1 (centres unmarked) [Example 186, 7-chloro-4-[2-(hydroxymethyl)azetidin-1-yl]-1-phenylhydroquinazolin-2-one] | < 200 | – |
| O=c1nc(N2CC[C@@H]2CO)c2ccc(Cl)cc2n1-c1ccccc1 [Example 187, (R)-7-chloro-4-(2-(hydroxymethyl)-azetidin-1-yl)-1-phenylquinazolin-2(1H)-one] | 200 to 500 | – |
| CNc1nc(=O)n(-c2nccn2C)c2cc(Cl)ccc12 [Example 188] | 200 to 500 | – |
| CO[C@@H]1CCN(c2nc(=O)n(-c3ccccc3)c3cc(Cl)ccc23)C1 [Example 189, (R)-7-chloro-4-(3-methoxypyrrolidin-1-yl)-1-phenylquinazolin-2(1H)-one] | < 200 | – |
| CNc1nc(=O)n(-c2ccccc2)c2cc(Cl)c(C#N)cc12 [Example 190, 7-chloro-4-(methylamino)-2-oxo-1-phenylhydroquinazoline-6-carbonitrile] | 1000 to 10000 | – |
| O=c1ncc2ccc(Cl)cc2n1-c1ccccc1 [Example 191, 7-chloro-1-phenylhydroquinazolin-2-one] | – | > 10000 |
| CNc1nc(=O)n(-c2ccccc2)c2cc(C)cnc12 [Example 192, 7-methyl-4-(methylamino)-1-phenyl-pyrido[3,2-d]pyrimidin-2(1H)-one] | – | > 10000 |

| SMILES | IC50 (class symbols) [nM] | IC50 (numeric bound) [nM] |
| --- | --- | --- |
| Cc1cnc2c(=O)[nH]c(=O)n(-c3ccccc3)c2c1 [Example 193, 7-methyl-1-phenylpyrido[3,2-d]-pyrimidine-2,4(1H,3H)-dione] | – | > 10000 |
| O=C(O)[C@@H]1CCCN1c1nc(=O)n(-c2ccccc2)c2cc(Cl)ccc12 [Example 195, (2S)-1-(7-chloro-2-oxo-1-phenylhydro-quinazolin-4-yl)pyrrolidine-2-carboxylic acid] | – | > 10000 |
| CO[C@H]1CCN(c2nc(=O)n(-c3ccccc3)c3cc(Cl)ccc23)C1 [Example 196, (S)-7-chloro-4-(3-methoxypyrrolidin-1-yl)-1-phenylquinazolin-2(1H)-one] | < 200 | – |
| CN(Cc1ccccc1)c1nc(=O)n(-c2ccccc2)c2cc(Cl)ccc12 [Example 197, 7-chloro-4-[methylbenzylamino]-1-phenylhydroquinazolin-2-one] | < 200 | – |
| COC(=O)C1CN(c2nc(=O)n(-c3ccccc3)c3cc(Cl)ccc23)C1 [Example 199, methyl 1-(7-chloro-2-oxo-1-phenyl-1,2-dihydroquinazolin-4-yl)azetidine-3-carboxylate] | < 200 | – |
| CS(=O)(=O)Nc1nc(=O)n(-c2ccccc2)c2cc(Cl)ccc12 [Example 200, N-(7-chloro-2-oxo-1-phenyl-1,2-dihydroquinazolin-4-yl)methane-sulfonamide] | 1000 to 10000 | – |
| NC1CCN(c2nc(=O)n(-c3ccccc3)c3cc(Cl)ccc23)C1 (centres unmarked) [Example 201, 4-(3-aminopyrrolidin-1-yl)-7-chloro-1-phenylquinazolin-2(1H)-one] | < 200 | – |
| CNc1nc(=O)n(-c2ccccc2)c2cc(Cl)cc(OC3COC3)c12 [Example 202, 7-chloro-4-(methylamino)-5-oxetan-3-yloxy-1-phenylhydroquinazolin-2-one] | – | > 10000 |
| CC(=O)Nc1nc(=O)n(-c2ccccc2)c2cc(Cl)ccc12 [Example 203, N-(7-chloro-2-oxo-1-phenyl-1,2-dihydroquinazolin-4-yl)acetamide] | 200 to 500 | – |
| CNC(=O)C1CN(c2nc(=O)n(-c3ccccc3)c3cc(Cl)ccc23)C1 [Example 204, 1-(7-chloro-2-oxo-1-phenyl-1,2-dihydroquinazolin-4-yl)-N-methyl-azetidine-3-carboxamide] | < 200 | – |
| CN(CC(F)F)c1nc(=O)n(-c2ccccc2)c2cc(Cl)ccc12 [Example 205, 4-[(2,2-difluoroethyl)methylamino]-7-chloro-1-phenylhydroquinazolin-2-one] | < 200 | – |
| O=C1CCN1c1nc(=O)n(-c2ccccc2)c2cc(Cl)ccc12 [Example 206, 7-chloro-4-(2-oxoazetidin-1-yl)-1-phenylhydroquinazolin-2-one] | – | > 10000 |
| CNc1nc(=O)n(-c2ccccc2)c2cc(Cl)cc(-n3cccn3)c12 [Example 208, 7-chloro-4-(methylamino)-1-phenyl-5-(1H-pyrazol-1-yl)quinazolin-2(1H)-one] | – | > 10000 |
| CNc1nc(=O)n(-c2ccccc2)c2cc(Cl)cc(-n3nccn3)c12 [Example 209, 7-chloro-4-(methylamino)-1-phenyl-5-(1,2,3-triazol-2-yl)quinazolin-2(1H)-one] | – | > 10000 |
| O=c1[nH]c(=O)n(-c2nccc(O)n2)c2cc(Cl)ccc12 [Example 210, 7-chloro-1-(4-hydroxypyrimidin-2-yl)-1,3-dihydroquinazoline-2,4-dione] | – | > 10000 |
| CN(C)c1nc(=O)n(-c2cccc(NS(=O)(=O)C3(C)CC3)c2)c2cc(Cl)ccc12 [Example 211] | 500 to 1000 | – |
| O=c1[nH]c(=O)n(-c2ccccc2)c2cc(CO)ccc12 [Example 212, 7-(hydroxymethyl)-1-phenyl-1,3-dihydroquinazoline-2,4-dione] | – | > 10000 |
| CCOC(=O)c1ccc2c(=O)[nH]c(=O)n(-c3ccccc3)c2c1 [Example 213, ethyl 2,4-dioxo-1-phenyl-1,3-dihydro-quinazoline-7-carboxylate] | 1000 to 10000 | – |
| CNc1nc(=O)n(-c2ccn[nH]2)c2cc(Cl)ccc12 [Example 214, 7-chloro-4-(methylamino)-1-pyrazol-5-ylhydroquinazolin-2-one] | < 200 | – |
| Cn1ccnc1-n1c(=O)[nH]c(=O)c2ccc(Cl)cc21 [Example 215, 7-chloro-1-(1-methylimidazol-2-yl)-1,3-dihydroquinazoline-2,4-dione] | – | > 10000 |
